{"source": "patent US4355026A", "about": "“4-Demethoxy,11-deoxy anthracycline derivatives” (priority 1980, dated 1982)", "key": {"L1210 leukemia cells [1]": {"tested_on": "L1210 leukemia cells", "assay": "Inhibitory effect on growth of L1210 cultivated leukemic cells of mice", "type": "cell-based", "conditions": "Mus musculus, RPMI 1640, 20% calf serum, 37° C.", "description": "(§1) A. Inhibitory Effect on Growth, DNA Synthesis and RNA Synthesis of L1210 Cultivated Leukemic Cells of Mice\nFor example, L1210 cells were inoculated in a concentration of 5×10^4 cells/ml in an RPMI 1640 culture medium (Roswell Park Memorial Institute 1640) containing 20% calf serum and, simultaneously, representative compounds of the present invention were added in a concentration of 0.1 and 0.5 μg/ml. The cells were cultivated in a CO2 generator at 37° C. The 50% growth inhibitory concentration with respect to a control group was then determined."}, "L1210 leukemia cells [2]": {"tested_on": "L1210 leukemia cells", "assay": "Antitumor activity on CDFI mouse leukemia induced by mouse L1210 leukemia cells", "type": "in vivo, CDFI mice", "conditions": "intraperitoneal, 10 consecutive days", "description": "B. Antitumor Activity on CDFI Mouse Leukemia Induced by Mouse L1210 Leukemia cells\nL1210 leukemia cells of mice were intraperitoneally transplanted in an amount of 1×10^5 cells/mouse in CDFI mice. Starting 24 hours after the transplantation, each of the test compounds was intraperitoneally administered to the mice for 10 consecutive days. the survival rate (T/C, %) was calculated in comparison with a control group (to which physiological saline was administered)."}, "[3]": {"tested_on": "L1210 leukemia cells, RNA synthesis", "assay": "Inhibition of RNA synthesis (14C-uridine incorporation) of L1210 cultivated leukemic cells", "type": "cell-based", "conditions": "Mus musculus, L1210, 1 h, 14C-uridine, 60 minutes, 37° C.", "description": "as §1\n(§2) Separately, the above L1210 cultivated cells were suspended in a concentration of 5×10^5 cells/ml in an RPMI 1640 medium containing 10% calf serum and cultivated for 1 to 2 hours in a CO2 incubator at 37° C. Then, representative test compounds were added in various concentrations, and 15 minutes later, ^14 C-uridine (0.05 μCi/ml) or ^14 C-thymidine (0.05 μCi/ml) were added. The cells were incubated at 37° C. for 60 minutes. A 10% aqueous trichloroacetic acid solution was added to the incubation medium to stop the reaction and simultaneously precipitate acid-insoluble matter. The acid-insoluble matter was washed three times with a 5 to 10% aqueous solution of trichloroacetic acid and then dissolved in formic acid. The radioactivity of the acid-insoluble matter was measured. From the ratio of incorporated radiation to that of a control group, the concentrations which inhibited radiation by 10%, 50% and 90% respectively were measured."}, "[4]": {"tested_on": "L1210 leukemia cells, DNA synthesis", "assay": "Inhibition of DNA synthesis (14C-thymidine incorporation) of L1210 cultivated leukemic cells", "type": "cell-based", "conditions": "Mus musculus, L1210, 1 h, 14C-thymidine, 60 minutes, 37° C.", "description": "as §1, §2"}, "[5]": {"tested_on": "Pseudomonas aeruginosa A3", "assay": "MIC on nutrient agar medium", "type": "cell-based", "description": "(§3) The compounds of formula I provided by the present invention are also characterized by their antimicrobial activity. Table 3 summarizes the minimum inhibitory concentrations (MIC) of representative compounds of the present invention against various microorganisms on a nutrient agar medium."}, "[6]": {"tested_on": "Mycobacterium smegmatis ATCC 607", "assay": "MIC on nutrient agar medium", "type": "cell-based", "conditions": "Mycolicibacterium smegmatis, ATCC607", "description": "as §3"}, "[7]": {"tested_on": "Shigella flexneri 46 JS 11811", "assay": "MIC on nutrient agar medium", "type": "cell-based", "conditions": "46JS11811", "description": "as §3"}, "Salmonella typhi T - 63": {"tested_on": "Salmonella typhi T - 63", "assay": "MIC on nutrient agar medium", "type": "cell-based", "conditions": "Salmonella enterica", "description": "as §3"}, "[8]": {"tested_on": "Bacillus subtilis PCI 219", "assay": "MIC on nutrient agar medium", "type": "cell-based", "conditions": "PCI219", "description": "as §3"}, "[9]": {"tested_on": "Staphylococcus aureus FDA 209", "assay": "MIC on nutrient agar medium", "type": "cell-based", "conditions": "FDA209", "description": "as §3"}, "[10]": {"tested_on": "Bacillus subtilis NRRB- 558", "assay": "MIC on nutrient agar medium", "type": "cell-based", "conditions": "NRRB558", "description": "as §3"}, "Sarcina lutea PCI 1001": {"tested_on": "Sarcina lutea PCI 1001", "assay": "MIC on nutrient agar medium", "type": "cell-based", "conditions": "Micrococcus luteus, PCI1001", "description": "as §3"}, "[11]": {"tested_on": "Corynebacterium bovis 1810", "assay": "MIC on nutrient agar medium", "type": "cell-based", "description": "as §3"}, "[12]": {"tested_on": "Bacillus cereus ATCC 10702", "assay": "MIC on nutrient agar medium", "type": "cell-based", "conditions": "ATCC10702", "description": "as §3"}, "Bacillus megatherium APF": {"tested_on": "Bacillus megatherium APF", "assay": "MIC on nutrient agar medium", "type": "cell-based", "description": "as §3"}, "[13]": {"tested_on": "Staphylococcus aureus smith", "assay": "MIC on nutrient agar medium", "type": "cell-based", "description": "as §3"}, "Candida albicans 3147": {"tested_on": "Candida albicans 3147", "assay": "MIC on nutrient agar medium", "type": "cell-based", "description": "as §3"}, "Escherichia coli NIHJ": {"tested_on": "Escherichia coli NIHJ", "assay": "MIC on nutrient agar medium", "type": "cell-based", "description": "as §3"}, "[14]": {"tested_on": "Klebsiella pneumonia PCI 602", "assay": "MIC on nutrient agar medium", "type": "cell-based", "conditions": "Klebsiella pneumoniae, PCI602", "description": "as §3"}, "[15]": {"tested_on": "Microccus lysodeikticus IFQ 3333", "assay": "MIC on nutrient agar medium", "type": "cell-based", "description": "as §3"}, "Microccus flavus FDA 16": {"tested_on": "Microccus flavus FDA 16", "assay": "MIC on nutrient agar medium", "type": "cell-based", "description": "as §3"}}, "note": "Where two headings read alike, the source gives them in different places.", "data": [{"compound": "CC(=O)[C@]1(O)Cc2cc3c(c(O)c2[C@@H](O[C@H]2C[C@H](N)[C@H](O)[C@H](C)O2)C1)C(=O)c1ccccc1C3=O", "note": "(single isomer, unassigned; isomer 4) [4-Demethoxy-11-deoxy-daunomycin (7S,9S,1'α)isomer, 4-Demethoxy-11-deoxydaunomycin]", "values": [{"measurement": "IC50", "setting": "L1210 leukemia cells [1]; L1210, 24 h, 1 day later, read-out: IC50 growth, 1 day later", "result": 0.09, "unit": "µg/mL"}, {"measurement": "IC50", "setting": "L1210 leukemia cells [1]; L1210, 48 h, 2 days later, read-out: IC50 growth, 2 days later", "result": 0.01, "unit": "µg/mL"}, {"measurement": "Survival rate (T/C, %)", "setting": "L1210 leukemia cells [2]; 0.15 mg/kg/day", "result": 103, "unit": "%"}, {"measurement": "Survival rate (T/C, %)", "setting": "L1210 leukemia cells [2]; 0.3 mg/kg/day", "result": 115, "unit": "%"}, {"measurement": "Survival rate (T/C, %)", "setting": "L1210 leukemia cells [2]; 0.6 mg/kg/day", "result": 115, "unit": "%"}, {"measurement": "Survival rate (T/C, %)", "setting": "L1210 leukemia cells [2]; 1.25 mg/kg/day", "result": 135, "unit": "%"}, {"measurement": "Survival rate (T/C, %)", "setting": "L1210 leukemia cells [2]; 2.5 mg/kg/day", "result": 160, "unit": "%"}, {"measurement": "IC50", "setting": "[3]; read-out: IC50 RNA synthesis", "result": 0.34, "unit": "µg/mL"}, {"measurement": "IC90", "setting": "[3]; 90% inhibition, read-out: IC90 RNA synthesis", "result": 2.5, "unit": "µg/mL"}, {"measurement": "IC50", "setting": "[4]; read-out: IC50 DNA synthesis", "result": 0.22, "unit": "µg/mL"}, {"measurement": "IC90", "setting": "[4]; 90% inhibition, read-out: IC90 DNA synthesis", "result": 2.5, "unit": "µg/mL"}, {"measurement": "MIC", "setting": "[5]", "result": "> 100", "unit": "µg/mL"}, {"measurement": "MIC", "setting": "[6]", "result": 12.5, "unit": "µg/mL"}, {"measurement": "MIC", "setting": "[7]", "result": 100, "unit": "µg/mL"}, {"measurement": "MIC", "setting": "Salmonella typhi T - 63", "result": "> 100", "unit": "µg/mL"}, {"measurement": "MIC", "setting": "[8]", "result": 3.12, "unit": "µg/mL"}, {"measurement": "MIC", "setting": "[9]", "result": 25, "unit": "µg/mL"}, {"measurement": "MIC", "setting": "[10]", "result": 6.25, "unit": "µg/mL"}, {"measurement": "MIC", "setting": "Sarcina lutea PCI 1001", "result": 6.25, "unit": "µg/mL"}, {"measurement": "MIC", "setting": "[11]", "result": 6.25, "unit": "µg/mL"}, {"measurement": "MIC", "setting": "[12]", "result": 12.5, "unit": "µg/mL"}, {"measurement": "MIC", "setting": "Bacillus megatherium APF", "result": 6.25, "unit": "µg/mL"}, {"measurement": "MIC", "setting": "[13]", "result": 12.5, "unit": "µg/mL"}, {"measurement": "MIC", "setting": "Candida albicans 3147", "result": 100, "unit": "µg/mL"}, {"measurement": "MIC", "setting": "Escherichia coli NIHJ", "result": "> 100", "unit": "µg/mL"}, {"measurement": "MIC", "setting": "[14]", "result": 100, "unit": "µg/mL"}, {"measurement": "MIC", "setting": "[15]", "result": 12.5, "unit": "µg/mL"}, {"measurement": "MIC", "setting": "Microccus flavus FDA 16", "result": 6.25, "unit": "µg/mL"}]}]}
